For assay [1], the system named is NCI-H3122. Nature of the assay: cells. Particulars: Homo sapiens, NCI-H3122, 72 h.
Description: Antiproliferative activity against human NCI-H3122 cells expressing EML4-ALK fusion assessed as cell growth inhibition incubated for 72 hrs by CellTiter-Glo assay
For assay [2], the system named is NCI-H3122. Description: Induction of EML4-ALK degradation in human NCI-H3122 cells assessed as reduction in ALK level by measuring fold change at 100 nM measured after 24 hrs by Western blot analysis (reference value: […]). It counts as cell-based. In general terms: A western blot detects proteins with antibodies after separation by electrophoresis.
Assay [3] has as its system NCI-H3122. Description: Antiproliferative activity against human NCI-H3122 cells transfected with siRNF126 assessed as cell growth inhibition measured after 72 hrs by CellTiter-Glo assay. It counts as functional. In general terms: Cellular ATP, detected with luciferase, serves as a proxy for viable cell number.
In assay [4] the target is T1, Proto-oncogene tyrosine-protein kinase ROS (Homo sapiens, UniProt P08922). Nature of the assay: Inhibition of ROS (unknown origin) by Eurofins kinase profiler method.
T1 sequence (P08922 whole entry): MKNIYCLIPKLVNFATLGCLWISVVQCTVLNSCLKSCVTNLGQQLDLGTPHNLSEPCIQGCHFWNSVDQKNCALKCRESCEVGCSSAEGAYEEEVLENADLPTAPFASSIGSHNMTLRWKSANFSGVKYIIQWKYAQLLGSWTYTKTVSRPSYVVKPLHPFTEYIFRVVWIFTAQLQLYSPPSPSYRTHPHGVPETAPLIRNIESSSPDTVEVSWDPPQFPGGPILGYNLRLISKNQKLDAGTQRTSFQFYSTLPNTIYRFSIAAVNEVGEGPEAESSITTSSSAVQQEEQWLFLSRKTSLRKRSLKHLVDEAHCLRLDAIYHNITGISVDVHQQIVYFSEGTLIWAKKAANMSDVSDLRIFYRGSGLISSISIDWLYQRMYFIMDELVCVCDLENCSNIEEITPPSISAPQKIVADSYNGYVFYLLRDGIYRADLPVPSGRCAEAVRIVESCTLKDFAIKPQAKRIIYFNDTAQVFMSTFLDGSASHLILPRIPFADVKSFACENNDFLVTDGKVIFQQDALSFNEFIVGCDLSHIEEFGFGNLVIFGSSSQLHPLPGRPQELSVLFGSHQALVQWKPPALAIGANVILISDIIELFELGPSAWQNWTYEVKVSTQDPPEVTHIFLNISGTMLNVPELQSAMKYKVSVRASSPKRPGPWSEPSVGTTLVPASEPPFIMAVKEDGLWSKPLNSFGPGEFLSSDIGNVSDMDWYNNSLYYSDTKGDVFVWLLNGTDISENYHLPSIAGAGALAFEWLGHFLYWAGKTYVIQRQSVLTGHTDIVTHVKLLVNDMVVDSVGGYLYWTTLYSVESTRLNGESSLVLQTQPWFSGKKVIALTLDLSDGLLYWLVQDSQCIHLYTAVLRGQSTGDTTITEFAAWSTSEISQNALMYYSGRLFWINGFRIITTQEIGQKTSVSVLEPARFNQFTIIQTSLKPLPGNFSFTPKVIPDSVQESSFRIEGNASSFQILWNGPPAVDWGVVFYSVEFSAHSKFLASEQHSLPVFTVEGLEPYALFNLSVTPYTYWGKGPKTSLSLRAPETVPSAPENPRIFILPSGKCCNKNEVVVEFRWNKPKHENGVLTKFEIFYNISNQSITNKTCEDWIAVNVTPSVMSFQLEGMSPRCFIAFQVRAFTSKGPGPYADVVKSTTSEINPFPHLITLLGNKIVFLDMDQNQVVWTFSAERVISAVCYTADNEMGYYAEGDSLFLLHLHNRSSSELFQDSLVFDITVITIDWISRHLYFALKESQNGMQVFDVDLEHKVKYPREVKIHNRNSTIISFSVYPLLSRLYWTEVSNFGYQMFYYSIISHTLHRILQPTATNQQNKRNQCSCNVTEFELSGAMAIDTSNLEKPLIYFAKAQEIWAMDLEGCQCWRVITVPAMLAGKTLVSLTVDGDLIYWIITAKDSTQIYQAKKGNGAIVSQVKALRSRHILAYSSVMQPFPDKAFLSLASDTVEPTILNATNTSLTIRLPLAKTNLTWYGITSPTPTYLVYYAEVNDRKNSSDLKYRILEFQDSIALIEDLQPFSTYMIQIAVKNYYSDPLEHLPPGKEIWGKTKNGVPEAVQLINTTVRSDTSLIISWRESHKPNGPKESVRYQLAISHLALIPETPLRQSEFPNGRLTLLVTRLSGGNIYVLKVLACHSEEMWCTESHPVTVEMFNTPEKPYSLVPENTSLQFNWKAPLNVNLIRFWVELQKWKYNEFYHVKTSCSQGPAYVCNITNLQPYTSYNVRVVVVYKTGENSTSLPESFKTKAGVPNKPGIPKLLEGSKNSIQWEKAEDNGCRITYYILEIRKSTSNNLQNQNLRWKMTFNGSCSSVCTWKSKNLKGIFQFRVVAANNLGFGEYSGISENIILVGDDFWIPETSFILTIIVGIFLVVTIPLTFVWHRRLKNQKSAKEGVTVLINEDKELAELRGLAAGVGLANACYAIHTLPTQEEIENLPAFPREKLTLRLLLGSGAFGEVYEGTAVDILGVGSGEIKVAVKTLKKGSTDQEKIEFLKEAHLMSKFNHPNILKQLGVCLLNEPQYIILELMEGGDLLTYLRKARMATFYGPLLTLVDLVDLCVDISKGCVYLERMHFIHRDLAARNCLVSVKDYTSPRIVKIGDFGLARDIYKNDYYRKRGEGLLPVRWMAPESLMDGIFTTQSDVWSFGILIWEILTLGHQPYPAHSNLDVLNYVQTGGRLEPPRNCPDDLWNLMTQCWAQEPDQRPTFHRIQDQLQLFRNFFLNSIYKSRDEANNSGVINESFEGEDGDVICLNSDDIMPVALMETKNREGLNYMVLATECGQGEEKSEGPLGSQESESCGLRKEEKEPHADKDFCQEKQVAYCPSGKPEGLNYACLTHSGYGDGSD
Assay [5] concerns the target Epidermal growth factor receptor (Homo sapiens, UniProt P00533, L858R). Nature of the assay: Inhibition of EGFR L858R (unknown origin) by Eurofins kinase profiler method.
Assay [6] has as its target T1, Proto-oncogene tyrosine-protein kinase ROS. Description: Inhibition of ROS (unknown origin) at 1 uM by Eurofins kinase profiler method relative to control.
In assay [7] the target is Insulin receptor (Homo sapiens) (UniProt P06213). Description: Inhibition of IR (unknown origin) at 1 uM by Eurofins kinase profiler method relative to control.
The target in assay [8] is Insulin-like growth factor 1 receptor (Homo sapiens) (UniProt P08069). Description: Inhibition of IGF-1R (unknown origin) at 1 uM by Eurofins kinase profiler method relative to control.
Sequence of Insulin-like growth factor 1 receptor (Homo sapiens) (P08069 31-736 limits assumed): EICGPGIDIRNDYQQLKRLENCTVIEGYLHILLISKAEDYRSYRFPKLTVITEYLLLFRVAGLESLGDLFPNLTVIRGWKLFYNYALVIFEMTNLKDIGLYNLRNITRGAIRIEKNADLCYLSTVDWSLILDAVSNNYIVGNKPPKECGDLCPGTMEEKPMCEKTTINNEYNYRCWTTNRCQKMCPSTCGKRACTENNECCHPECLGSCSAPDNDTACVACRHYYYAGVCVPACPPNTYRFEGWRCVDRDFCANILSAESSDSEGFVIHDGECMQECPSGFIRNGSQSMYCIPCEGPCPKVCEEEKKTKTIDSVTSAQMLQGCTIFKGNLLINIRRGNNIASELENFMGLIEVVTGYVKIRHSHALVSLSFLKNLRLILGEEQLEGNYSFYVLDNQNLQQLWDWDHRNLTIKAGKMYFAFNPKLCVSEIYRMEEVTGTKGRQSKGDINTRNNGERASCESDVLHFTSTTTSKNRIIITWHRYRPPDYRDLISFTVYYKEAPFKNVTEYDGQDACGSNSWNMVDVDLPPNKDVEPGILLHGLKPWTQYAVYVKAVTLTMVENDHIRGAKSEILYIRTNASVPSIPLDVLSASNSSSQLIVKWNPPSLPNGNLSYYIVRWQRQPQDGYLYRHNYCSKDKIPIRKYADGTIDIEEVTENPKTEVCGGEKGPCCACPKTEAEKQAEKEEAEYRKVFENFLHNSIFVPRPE
Sequence of Insulin-like growth factor 1 receptor (Homo sapiens) (P08069 741-1367 limits assumed): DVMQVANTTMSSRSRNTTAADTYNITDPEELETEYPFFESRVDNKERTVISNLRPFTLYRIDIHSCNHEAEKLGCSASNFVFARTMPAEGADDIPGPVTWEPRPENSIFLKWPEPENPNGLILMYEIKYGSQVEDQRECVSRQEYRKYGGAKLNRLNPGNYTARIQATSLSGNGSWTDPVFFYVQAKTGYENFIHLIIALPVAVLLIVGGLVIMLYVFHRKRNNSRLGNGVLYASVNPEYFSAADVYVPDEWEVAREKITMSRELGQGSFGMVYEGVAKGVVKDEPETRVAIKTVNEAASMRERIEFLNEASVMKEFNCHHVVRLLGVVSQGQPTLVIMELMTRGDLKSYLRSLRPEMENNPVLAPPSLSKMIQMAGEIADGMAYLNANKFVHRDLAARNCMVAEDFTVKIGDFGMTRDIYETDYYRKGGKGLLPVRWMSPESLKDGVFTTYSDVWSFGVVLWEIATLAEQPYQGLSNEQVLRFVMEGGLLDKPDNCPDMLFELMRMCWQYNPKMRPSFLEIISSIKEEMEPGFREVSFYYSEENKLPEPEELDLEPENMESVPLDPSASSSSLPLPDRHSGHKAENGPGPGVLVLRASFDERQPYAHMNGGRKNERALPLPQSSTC
The subject of assay [9] is Epidermal growth factor receptor (Homo sapiens), P00533 [L858R]. Description: Inhibition of EGFR L858R (unknown origin) at 1 uM by Eurofins kinase profiler method relative to control.

As a reminder, the GI50 is the concentration that inhibits growth by half. Broadly, the IC50 is the concentration at which inhibition is half-maximal. Lower therefore signals higher potency. As usually defined, the inhibition is the drop in the measured response relative to a control, in per cent. High values mean a strong effect, low ones a weak effect.

Sequence of Epidermal growth factor receptor (Homo sapiens), P00533 [L858R] (P00533 whole entry L858R): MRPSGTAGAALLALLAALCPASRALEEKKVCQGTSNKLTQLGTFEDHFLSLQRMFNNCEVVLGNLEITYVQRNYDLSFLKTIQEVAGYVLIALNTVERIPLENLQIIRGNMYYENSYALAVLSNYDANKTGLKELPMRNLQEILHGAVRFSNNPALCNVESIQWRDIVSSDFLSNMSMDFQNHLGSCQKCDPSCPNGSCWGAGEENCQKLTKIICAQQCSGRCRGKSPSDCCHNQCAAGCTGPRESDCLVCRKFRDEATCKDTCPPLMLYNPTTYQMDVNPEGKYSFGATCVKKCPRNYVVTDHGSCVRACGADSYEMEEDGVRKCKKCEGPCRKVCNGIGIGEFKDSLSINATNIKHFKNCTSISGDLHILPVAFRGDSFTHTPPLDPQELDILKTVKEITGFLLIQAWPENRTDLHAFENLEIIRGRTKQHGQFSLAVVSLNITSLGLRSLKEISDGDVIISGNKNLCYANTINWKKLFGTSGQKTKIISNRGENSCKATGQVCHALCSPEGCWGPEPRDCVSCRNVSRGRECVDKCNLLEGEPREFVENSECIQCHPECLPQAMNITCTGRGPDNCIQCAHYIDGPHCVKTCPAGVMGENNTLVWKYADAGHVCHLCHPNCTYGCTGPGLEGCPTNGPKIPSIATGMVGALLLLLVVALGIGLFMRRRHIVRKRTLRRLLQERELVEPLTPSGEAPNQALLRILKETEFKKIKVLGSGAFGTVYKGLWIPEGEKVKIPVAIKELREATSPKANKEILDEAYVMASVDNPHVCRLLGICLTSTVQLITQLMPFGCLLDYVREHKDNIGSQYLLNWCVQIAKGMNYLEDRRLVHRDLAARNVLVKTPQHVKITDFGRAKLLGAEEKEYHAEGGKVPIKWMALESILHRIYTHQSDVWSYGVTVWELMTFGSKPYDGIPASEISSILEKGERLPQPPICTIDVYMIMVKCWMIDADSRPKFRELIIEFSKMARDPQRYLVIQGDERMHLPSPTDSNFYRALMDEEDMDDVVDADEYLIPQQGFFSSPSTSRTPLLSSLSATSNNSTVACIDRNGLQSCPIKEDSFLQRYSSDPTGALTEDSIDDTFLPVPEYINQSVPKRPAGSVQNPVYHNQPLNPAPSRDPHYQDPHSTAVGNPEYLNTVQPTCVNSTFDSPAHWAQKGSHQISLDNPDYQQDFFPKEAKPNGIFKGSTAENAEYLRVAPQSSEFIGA

With `COc1ccc(C(=O)/C=C/C(=O)N2CCC(n3cc(-c4cnc(N)c(O[C@H](C)c5c(Cl)ccc(F)c5Cl)c4)cn3)CC2)cc1`, the GI50 in the assay with NCI-H3122 [1] was determined as 56 nM.
In turn, `COc1ccc(C(=O)CCC(=O)N2CCC(c3cc(OC(C)C)c(Nc4ncc(Cl)c(Nc5ccccc5S(=O)(=O)C(C)C)n4)cc3C)CC2)cc1` had a GI50 in the assay on NCI-H3122 [1] of 747 nM.
For the compound `CC(C)C[C@H](NC(=O)[C@H](Cc1ccccc1)NC(=O)c1cnccn1)B(O)O`, the fold change (FC) in the assay on NCI-H3122 [2] came out at 1.
With `CCc1cc2c(cc1N1CCC(N3CCN(C(=O)CCC(=O)c4ccc(OC)cc4)CC3)CC1)C(C)(C)c1[nH]c3cc(C#N)ccc3c1C2=O`, in the assay with NCI-H3122 [1], the GI50 was greater than 5000 nM.
In turn, `COc1ccc(C(=O)CCC(=O)N2CCC(n3cc(-c4cnc(N)c(O[C@H](C)c5c(Cl)ccc(F)c5Cl)c4)cn3)CC2)cc1` registered a GI50 with NCI-H3122 [1] of 1100 nM.
`COc1ccc(C(=O)CCC(=O)N2CCN(C3CCN(c4ccc(Nc5ncc(Cl)c(Nc6ccccc6P(C)(C)=O)n5)c(OC)c4)CC3)CC2)cc1`: the GI50 in the assay with NCI-H3122 [3] came out at 111 nM; with NCI-H3122 [1], 66 nM.
`COc1ccc(C(=O)/C=C/C(=O)N2CCC(c3cc(OC(C)C)c(Nc4ncc(Cl)c(Nc5ccccc5S(=O)(=O)C(C)C)n4)cc3C)CC2)cc1`: halving of growth in the assay with NCI-H3122 [1] (GI50) required 209 nM.
In the assay on NCI-H3122 [1], `CCc1cc2c(cc1N1CCC(N3CCN(C(=O)/C=C/C(=O)c4ccc(OC)cc4)CC3)CC1)C(C)(C)c1[nH]c3cc(C#N)ccc3c1C2=O` returned a GI50 of 88 nM.
As for `Cc1cc(Nc2ncc(Cl)c(Nc3ccccc3S(=O)(=O)C(C)C)n2)c(OC(C)C)cc1C1CCNCC1` [CERITINIB], it took 23 nM to inhibit growth in the assay with NCI-H3122 [1] by half (GI50).
In the assay on NCI-H3122 [1], `CCc1cc2c(cc1N1CCC(N3CCOCC3)CC1)C(C)(C)c1[nH]c3cc(C#N)ccc3c1C2=O` [ALECTINIB] registered a GI50 of 23 nM.
Take `COc1ccc(C(=O)/C=C/C(=O)N2CCN(C3CCN(c4ccc(Nc5ncc(Cl)c(Nc6ccccc6P(C)(C)=O)n5)c(OC)c4)CC3)CC2)cc1`: the IC50 in assay [4] stood at 185 nM; in assay [5], 97.1 nM. Besides, the inhibition was 73% in [6], 48% in [7], 44% in [8] and 82% in assay [9]. The GI50 with NCI-H3122 [3] and in the assay with NCI-H3122 [1] was 2 nM in each case.
Regarding `COc1cc(N2CCC(N3CCN(C)CC3)CC2)ccc1Nc1ncc(Cl)c(Nc2ccccc2P(C)(C)=O)n1` [BRIGATINIB], the GI50 in the assay on NCI-H3122 [3] is 43 nM; in the assay on NCI-H3122 [1], 35 nM.

The values are drawn from ChEMBL document CHEMBL6103556, “Design and evaluation of anaplastic lymphoma kinase degraders using a covalent fumarate handle” (Bioorg Med Chem Lett, 2025).
